Reference: publication PMC2680961, “Homologous desensitization of signalling by the alpha (α) isoform of the human thromboxane A2 receptor: A specific role for nitric oxide signalling” (Biochimica et Biophysica Acta, 2007)

Tests used:
[1] = biological target: T1, TPα^WT (Homo sapiens, UniProt P21731); experiment: [3H]SQ29,548 radioligand binding, Scatchard analysis, HEK.TPα^WT
T1 construct: expressed in transfected cells
Description: (§1) Cells were harvested by centrifugation at 500×g at 4 °C for 5 min and washed three times with ice-cold Ca^2+/Mg^2+-free phosphate-buffered saline (PBS). TP radioligand binding assays were carried out at 30 °C for 30 min in 100 μl reactions in the presence of 0–40 nM [^3H] […] Protein determinations were carried out using the Bradford assay.
(§2) Radioligand binding and Scatchard analysis data were analysed using GraphPad Prisim V4.0 programme (GraphPad Software Inc., San Diego CA, USA). Statistical analyses were carried out using the unpaired Student's t test using the Statworks Analysis Package. p-values ≤ 0.01 indicated statistically significant differences.

[2] = biological target: T2, TPα^S329,331A (Homo sapiens, UniProt P21731, S329A/S331A); experiment: [3H]SQ29,548 radioligand binding, Scatchard analysis, HEK.TPα^S329,331A
T2 construct: expressed in transfected cells
T2 sequence (P21731 1-343 S329A/S331A): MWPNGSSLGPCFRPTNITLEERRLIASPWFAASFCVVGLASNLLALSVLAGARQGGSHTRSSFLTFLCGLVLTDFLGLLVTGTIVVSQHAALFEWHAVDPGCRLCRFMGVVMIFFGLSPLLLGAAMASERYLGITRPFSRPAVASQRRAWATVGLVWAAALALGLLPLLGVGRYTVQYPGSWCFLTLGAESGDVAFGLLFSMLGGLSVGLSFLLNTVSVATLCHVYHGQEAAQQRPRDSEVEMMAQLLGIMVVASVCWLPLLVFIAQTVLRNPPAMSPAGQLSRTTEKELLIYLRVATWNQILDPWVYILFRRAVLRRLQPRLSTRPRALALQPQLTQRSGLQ
Description: as §1, §2

[3] = biological target: T3, TP^Δ328 (Homo sapiens, UniProt P21731); experiment: [3H]SQ29,548 radioligand binding, Scatchard analysis, HEK.TP^Δ328
T3 construct: expressed in transfected cells
T3 sequence (P21731 1-328): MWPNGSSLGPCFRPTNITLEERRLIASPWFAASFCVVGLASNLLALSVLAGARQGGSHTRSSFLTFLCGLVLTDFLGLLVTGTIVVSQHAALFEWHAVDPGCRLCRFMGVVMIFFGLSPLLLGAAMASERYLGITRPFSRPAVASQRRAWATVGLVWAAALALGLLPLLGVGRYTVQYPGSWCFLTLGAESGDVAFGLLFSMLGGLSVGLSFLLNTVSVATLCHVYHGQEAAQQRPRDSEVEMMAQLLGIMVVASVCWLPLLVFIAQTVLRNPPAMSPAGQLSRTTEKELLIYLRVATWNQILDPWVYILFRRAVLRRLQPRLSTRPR
Description: as §1, §2

T1 sequence (P21731 whole entry): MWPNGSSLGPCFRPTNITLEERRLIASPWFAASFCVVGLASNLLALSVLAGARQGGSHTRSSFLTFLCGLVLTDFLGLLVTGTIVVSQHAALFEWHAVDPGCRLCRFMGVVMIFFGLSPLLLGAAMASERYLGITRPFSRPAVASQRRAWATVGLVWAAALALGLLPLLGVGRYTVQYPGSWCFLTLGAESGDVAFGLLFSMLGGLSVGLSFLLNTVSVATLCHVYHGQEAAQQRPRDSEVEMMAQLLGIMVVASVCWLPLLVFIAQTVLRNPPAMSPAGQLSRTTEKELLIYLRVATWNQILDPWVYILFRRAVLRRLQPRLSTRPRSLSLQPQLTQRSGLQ

Which results are given for O=C(O)CCC/C=C\C[C@@H]1[C@H](CNNC(=O)Nc2ccccc2)[C@H]2CC[C@@H]1O2 [SQ29,548]?
Bmax (pmol/mg protein ± S.E.M.) [1]: 4.52 ± 0.05 pmol/mg protein; Bmax (pmol/mg protein ± S.E.M.) [2]: 2.9 ± 0.19 pmol/mg protein; Bmax (pmol/mg protein ± S.E.M.) [3]: 4.47 ± 0.04 pmol/mg protein
